We go through 57 compounds from ChEMBL document CHEMBL1201862, “PubChem BioAssay data set” (2004).

Among the test systems are BT-549; DLD-1; DMS-114; DMS-273; KM-20L2; SNB-78; XF498; HOP-18.
Common to all, as to assay: growth of human tumour cells (NCI), 48 h

Each structure is given as a SMILES string.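 48-hour exposure; five concentrations; linearly interpolated endpoints. Abbreviation: GI50, concentration required for 50% inhibition of growth.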 The source made the active and inactive calls. Rule as the data show it: active = GI50 up to about 1.1 µM and inactive = higher.

Take `CCOC(=O)c1nc2cc(C(F)(F)F)ccc2nc1Nc1ccc(OC)cc1`: in the assay on BT-549, the GI50 was > 100 µM (inactive).
As for `C/C(=N\NS(=O)(=O)c1ccc(C)cc1)c1cc2ccccc2n1C`, the GI50 with DLD-1, in the assay with DMS-114, in the assay on DMS-273 and in the assay on KM-20L2 was > 100 µM (inactive) each time.
With `NC(=S)N1N=C2CCCCCC[C@@H]2[C@H]1c1ccccc1`, the GI50 in the assay on DLD-1 was 56.2 µM (inactive); with DMS-114, 27.1 µM (inactive); with DMS-273, 34.2 µM (inactive); in the assay on KM-20L2, 62.1 µM (inactive); with SNB-78, > 100 µM (inactive); in the assay with XF498, 23.9 µM (inactive).
For the compound `CCOC(=O)c1c(C)n(-c2ccc(C)cc2)c(=O)c2ccccc2c(=O)c2c(=O)ccc(=O)c1=2`, in the assay on BT-549, the GI50 was 23.3 µM (inactive).
As for `O=C1CSC(c2c[nH]c3ccccc23)N1c1ccc(Cl)cc1Cl` (configuration not stated), in the assay with BT-549, the GI50 is > 100 µM (inactive).
Take `O=C(c1nc2ccc(Cl)cc2[nH]c1=O)C(O)c1cccc([N+](=O)[O-])c1` (configuration not stated): the GI50 in the assay on DLD-1 is > 100 µM (inactive); in the assay with DMS-114 it was 5.98 µM (inactive); in the assay with DMS-273, > 100 µM (inactive); in the assay with HOP-18, > 100 µM (inactive); with KM-20L2, > 100 µM (inactive); with SNB-78, > 100 µM (inactive). For the same compound, in the assay with XF498, the GI50 is 9.1 µM (inactive).
With `C[C@@](Br)(C(=O)O)[C@H](Br)C(=O)O`, the GI50 in the assay on BT-549 was > 100 µM (inactive).
Regarding `COc1ccc(Cc2c(N)[nH]c(=O)[nH]c2=O)cc1`, the GI50 with BT-549 is > 100 µM (inactive).
Turning to `CC12c3c4cc(Br)cc3Oc3cc(Br)cc(c31)Oc1cc(Br)cc(c12)O4`, the GI50 in the assay on BT-549 is 21.9 µM (inactive).
On the same count and under the same terms, then `COC(=O)c1ccc(CN2CCc3c([nH]c4ccccc34)C2CO)o1` (configuration not stated), with > 10 µM (inactive).
Regarding `O=C1C=C(c2[nH]c3ccccc3c2C2=CC(=O)c3ccccc3C2=O)C(=O)c2ccccc21`, the GI50 with DLD-1 is 57.1 µM (inactive); in the assay with DMS-114, 17.3 µM (inactive); with DMS-273 it was 39.2 µM (inactive); with HOP-18, > 100 µM (inactive); in the assay with SNB-78, 32.8 µM (inactive).
`C#CCOC(=O)C(N)CC(N)=O` (configuration not stated): the GI50 in the assay with BT-549 was > 100 µM (inactive).
Turning to `N#CC1CCCCCCCCCCC(=O)N(CCCl)C1=O` (configuration not stated), the GI50 with DLD-1, in the assay with DMS-114, in the assay with DMS-273, with KM-20L2, in the assay on SNB-78 and in the assay with XF498 was > 100 µM (inactive) in each case.
Regarding `CC(=O)CC(=O)c1cc2c(=O)oc(C)cc2oc1=O`, the GI50 with BT-549 was > 37.5 µM (inactive).
Still for that read-out and setting: then `COC(=O)/C=C\C(C#N)(C#N)/N=C/c1cccs1`, with 7.89 µM (inactive); and `COc1cc(O)c2c(c1)C(O)C(O)CC1OC1C(=O)/C=C/CC(C)OC2=O` (configuration not stated), with 0.979 µM (active); and `C[C@H](CCC(=O)O)[C@H]1CC[C@H]2[C@@H]3[C@@H](O)C[C@@H]4C[C@H](O)CC[C@]4(C)[C@H]3CC[C@]12C`, with 38.8 µM (inactive).
Still for that read-out and setting: the figure for `CCCC#CCOC(=O)c1cc([N+](=O)[O-])cc([N+](=O)[O-])c1` is > 100 µM (inactive).
`COC(=O)C1=C(C(=O)OC)C(C(=O)OC)C(C(=O)OC)C(C(=O)OC)(C(=O)OC)C(C(=O)OC)=C1C(=O)OC` (configuration not stated): the GI50 was 18.2 µM (inactive) with BT-549; 1.81 µM (inactive) with DLD-1; 8.91 µM (inactive) with DMS-114; 17.1 µM (inactive) in the assay on HOP-18; 17.7 µM (inactive) in the assay with KM-20L2; 18.4 µM (inactive) with SNB-78. In addition, the GI50 in the assay on XF498 was 12.2 µM (inactive).
With `C/C=C1/CN2CCC34c5ccccc5N(C)C23C2CC1C4(C(=O)OC)C(OC(C)=O)O2` (configuration not stated), the GI50 with BT-549 was > 100 µM (inactive).
For `Nc1cc(CO)cc(Nc2c3ccccc3nc3occc23)c1`, the GI50 in the assay with BT-549 is 19.4 µM (inactive).
Consider `CC1C(c2ccccc2)N(C)C(c2ccccc2)C(C)C1(O)c1ccccc1` (configuration not stated), for which the GI50 in the assay on DLD-1 is > 100 µM (inactive); in the assay with DMS-114 it was > 100 µM (inactive); with DMS-273, 40.7 µM (inactive); in the assay with KM-20L2, > 100 µM (inactive); in the assay on SNB-78, > 100 µM (inactive).
Regarding `CC(C)=CCC/C(C)=C/CC/C(C)=C/[C@@H]1[C@@H](CO)[C@]1(C)CC/C=C(\C)CCC=C(C)C`, in the assay on BT-549, the GI50 was > 100 µM (inactive).
Consider `CCOC(=O)C(NCc1ccc2c(c1)OCO2)(NC(=O)c1ccccc1)C(F)(F)F` (configuration not stated), for which, in the assay with BT-549, the GI50 is > 100 µM (inactive).
As to `O=C1Nc2c(ccc(Cl)c2I)C1=O`, the GI50 in the assay with DLD-1 is 18.5 µM (inactive); in the assay with DMS-114, 15.5 µM (inactive); in the assay with DMS-273 it was 17 µM (inactive); with KM-20L2, 30 µM (inactive); in the assay with XF498, 16 µM (inactive).
As to `O=C(O)C(O)c1ccc(F)cc1` (configuration not stated), the GI50 in the assay with BT-549 was > 100 µM (inactive).
Still for that read-out and setting: then `O=C(c1ccco1)n1c2ccc(Br)cc2c2nc3ccccc3nc21`, with 45.4 µM (inactive); and `Cc1ccc(Nc2c(C#N)[n+]([O-])c3cc(Cl)ccc3[n+]2[O-])cc1`, with 9.46 µM (inactive).
Consider `COc1ccc(COCC[C@H](C)OC2OC(CO[Si](C)(C)C(C)(C)C)C(OC(=O)CCCN=[N+]=[N-])C(OC(=O)CCCN=[N+]=[N-])C2OC(=O)CCCN=[N+]=[N-])cc1` (some centres not stated), for which the GI50 in the assay with BT-549 is 22.2 µM (inactive).
For the compound `O=C(N/C(=C\c1cc(Cl)ccc1Cl)c1nc2cc(Cl)ccc2[nH]1)c1ccccc1`, the GI50 in the assay on DLD-1 is 12.8 µM (inactive); with DMS-114, 15.4 µM (inactive); in the assay with KM-20L2 it was 18.2 µM (inactive); with SNB-78, 21.7 µM (inactive).
With `CCNC(=S)N/N=C(/C)c1cccc(/C(C)=N\NC(=S)NCC)n1`, in the assay with BT-549, the GI50 is 10.4 µM (inactive).
As to `OCC(O)COCn1cc(Cn2ncc3c(NCc4ccccc4)ncnc32)nn1` (configuration not stated), the GI50 in the assay on BT-549 is > 100 µM (inactive).
On to `O=C1C(Cl)=C(NCCOCCO)C(=O)c2c(O)ccc(O)c21`, for which the GI50 with DLD-1 is 2.13 µM (inactive); with DMS-273, 3.89 µM (inactive); in the assay on HOP-18 it was 15.6 µM (inactive); in the assay on SNB-78, 12.7 µM (inactive).
As for `COC(=O)C1=C(\c2ccccc2)c2ccccc2C(=O)N(C2CCCCC2)/C=C\1`, the GI50 with BT-549 is 23.1 µM (inactive).
Turning to `COc1cc(C=C2C(=O)OC(C)(C)OC2=O)cc(OC)c1OC`, the GI50 with DLD-1, with DMS-114, in the assay with DMS-273, with HOP-18, in the assay with KM-20L2 and in the assay with SNB-78 was > 100 µM (inactive) in each case.
On to `COc1cc(/C=C2\C(=O)N(c3cccc(NC(C)=O)c3)C(c3ccccc3)S2(=O)=O)cc(OC)c1OC` (configuration not stated), for which, in the assay with BT-549, the GI50 is 67.3 µM (inactive).
Take `O=C(O)C1=Cc2cccc3cccc(c23)C1=O`: the GI50 in the assay with DLD-1, in the assay on DMS-114, in the assay on DMS-273, in the assay on HOP-18 and with KM-20L2 was > 100 µM (inactive) in each case.
With `CCOC(=O)c1c(N)sc2c1C(C(=O)OCC)CCC2` (configuration not stated), in the assay on BT-549, the GI50 was > 100 µM (inactive).
On to `CN(C)CCC(O)(c1ccccc1)C(O)(CCN(C)C)c1ccccc1` (configuration not stated), for which the GI50 in the assay with DLD-1 was > 100 µM (inactive); in the assay with DMS-114 it was > 100 µM (inactive); in the assay with KM-20L2, 67 µM (inactive); in the assay with SNB-78 it was > 100 µM (inactive); in the assay on XF498 it was 38.7 µM (inactive).
Regarding `CC1(C)CC(=O)C(=CNC(=S)c2ccccc2)C(=O)C1`, the GI50 with BT-549 was > 100 µM (inactive).
The same measure, in the same setting: the figure for `CC(C)(CC(=O)Nc1ccccc1)C(=O)O` is > 100 µM (inactive).
Turning to `O=[N+]([O-])c1ccccc1S(=O)(=O)c1cc(O)cc2c1NCCC2`, in the assay with BT-549, the GI50 is 13.2 µM (inactive).
With `C=CC(Br)(CBr)CCC1OC1(C)C` (configuration not stated), the GI50 with BT-549 was 16.6 µM (inactive).
On the same count and under the same terms, the figure for `Cc1c2oc3c(C)cnc(C(=O)NC4C(=O)NC(C(C)C)C(=O)N5CCCC5C(=O)N(C)CC(=O)N(C)C(C(C)C)C(=O)OC4C)c3nc-2c(C(=O)NC2C(=O)NC(C(C)C)C(=O)N3CCCC3C(=O)N(C)CC(=O)N(C)C(C(C)C)C(=O)OC2C)c(N)c1=O` (configuration not stated) is 7.62 µM (inactive).
As for `Cc1cccc2c1C(=O)[C@](C)([C@]1(C)Nc3cccc(C)c3C1=O)N2`, the GI50 with BT-549 was 20.8 µM (inactive).
As for `COC(=O)[C@@]12OC[C@]34C([C@@H](O)C1O)[C@@]1(C)CC(=O)C(OC(=O)CC(C)C(F)(F)F)=C(C)C1C[C@H]3OC(=O)[C@H](O)[C@H]42` (some centres not stated), the GI50 is 1.44 µM (inactive) in the assay on DMS-114; 0.379 µM (active) in the assay on DMS-273; 1.99 µM (inactive) in the assay with HOP-18; 3.8 µM (inactive) in the assay on KM-20L2; 29.2 µM (inactive) with SNB-78; 0.13 µM (active) in the assay with XF498.
As to `O=C(O)C(CO)NC(=O)n1c2ccccc2c2ccccc21` (configuration not stated), the GI50 in the assay on DLD-1, with DMS-114, with DMS-273, in the assay on HOP-18 and with XF498 was > 100 µM (inactive) each time.
For the compound `O=C(c1cccs1)N(C(=O)N1CCN(c2ccccc2)CC1)S(=O)(=O)c1ccccc1`, in the assay on BT-549, the GI50 is 28.2 µM (inactive).
As for `CCC(=O)CC(=O)CCC(=O)Nc1cc(C)ccc1C`, the GI50 in the assay on DLD-1, with HOP-18, with KM-20L2, in the assay with SNB-78 and in the assay with XF498 was > 100 µM (inactive) throughout.
For `O=C1Cc2cn[nH]c2-c2ccccc2N1`, the GI50 in the assay on BT-549 was 22.5 µM (inactive).
Consider `CN(C)CCOc1ccc2[nH]c(C(=O)N3CC(CCl)c4c3cc(NC(=O)OCc3ccc([N+](=O)[O-])cc3)c3ccccc43)cc2c1` (configuration not stated), for which the GI50 with BT-549 is 1.85 µM (inactive).
Still for that read-out and setting: the figure for `CC1CCc2sc3nc(S)n(C)c(=O)c3c2C1` (configuration not stated) is 96.8 µM (inactive); for `CC(C)(C)OC(=O)NCCC1SC2C=CC1C2` (configuration not stated) it is > 100 µM (inactive).
Take `c1ccc2c(c1)CCc1cc3cc4c(nc3nc1-2)-c1ccccc1CC4`: the GI50 in the assay with DLD-1, in the assay with DMS-273 and in the assay with SNB-78 was > 100 µM (inactive) in each case.
In the case of `NCCCOc1ccc([N+](=O)[O-])cc1Cl`, the GI50 in the assay with DLD-1, in the assay with DMS-114, in the assay on DMS-273, with KM-20L2 and with XF498 was > 100 µM (inactive) in each case.
In the case of `N=c1c2ccccc2nc2oc3ccc(Cl)cc3n12`, the GI50 with BT-549 is 36.6 µM (inactive).
Take `CC1=CC(=O)C2=C(C)CCC3C(C)C(=O)OC3C12` (configuration not stated): the GI50 in the assay on BT-549 was > 100 µM (inactive).
